Where “and” joins values, the source holds several entries; their conditions need not be identical. Equal values may be shown once.
Legend:
recombinant human TOP2A = target: T1, recombinant human TOP2A (Homo sapiens, UniProt P11388); assay: In vitro ATPase activity of TOP2A (coupled assay); format: biochemical; settings: n=3
T1 construct: Using recombinant full-length human TOP2A and TOP2B enzymes; YFP (N, cleaved yes); made in house; host or cells: HEK293F
Procedure: (§1) Topoisomerase proteins were diluted to 500 nM in storage buffer containing 20 mM HEPES pH 7.5, 500 mM NaCl, 0.5 mM TCEP, 25% glycerol, and 0.2 mg/mL BSA prior to use. A coupled assay was used to measure TOP2-catalyzed ATP hydrolysis in vitro[37] in Costar 96-well plates (Corning Incorporated). […] Reaction plates were pre-warmed to 30 °C for 5 min and ATP was added last to initiate the reaction. The reaction plate was placed in a CLARIOstarPlus plate reader (BMG Labtech) to measure NADH fluorescence at 30 °C every 30 s over 120 cycles using a 340-60 excitation filter and a 480-100 emission filter. Background fluorescence signals calculated from wells containing no ATP were subtracted from each measurement. The slope of NADH fluorescence decay in each well was calculated using the MARS software (BMG Labtech) and reaction wells that lacked topoisomerase inhibitor to account for photobleaching of NADH fluorescence served as background subtraction. Each presented data point was obtained from distinct sample. Values were normalized to untreated controls and plotted as a function of inhibitor concentration to determine IC50 values using Prism 9 (GraphPad).

recombinant human TOP2B = target: T2, recombinant human TOP2B (Homo sapiens, UniProt Q02880); assay: In vitro ATPase activity of TOP2B (coupled assay); format: biochemical
T2 construct: Using recombinant full-length human TOP2A and TOP2B enzymes; YFP (N, cleaved yes); made in house; host or cells: HEK293F
T2 sequence (Q02880 1-1621 isoform Q02880-2): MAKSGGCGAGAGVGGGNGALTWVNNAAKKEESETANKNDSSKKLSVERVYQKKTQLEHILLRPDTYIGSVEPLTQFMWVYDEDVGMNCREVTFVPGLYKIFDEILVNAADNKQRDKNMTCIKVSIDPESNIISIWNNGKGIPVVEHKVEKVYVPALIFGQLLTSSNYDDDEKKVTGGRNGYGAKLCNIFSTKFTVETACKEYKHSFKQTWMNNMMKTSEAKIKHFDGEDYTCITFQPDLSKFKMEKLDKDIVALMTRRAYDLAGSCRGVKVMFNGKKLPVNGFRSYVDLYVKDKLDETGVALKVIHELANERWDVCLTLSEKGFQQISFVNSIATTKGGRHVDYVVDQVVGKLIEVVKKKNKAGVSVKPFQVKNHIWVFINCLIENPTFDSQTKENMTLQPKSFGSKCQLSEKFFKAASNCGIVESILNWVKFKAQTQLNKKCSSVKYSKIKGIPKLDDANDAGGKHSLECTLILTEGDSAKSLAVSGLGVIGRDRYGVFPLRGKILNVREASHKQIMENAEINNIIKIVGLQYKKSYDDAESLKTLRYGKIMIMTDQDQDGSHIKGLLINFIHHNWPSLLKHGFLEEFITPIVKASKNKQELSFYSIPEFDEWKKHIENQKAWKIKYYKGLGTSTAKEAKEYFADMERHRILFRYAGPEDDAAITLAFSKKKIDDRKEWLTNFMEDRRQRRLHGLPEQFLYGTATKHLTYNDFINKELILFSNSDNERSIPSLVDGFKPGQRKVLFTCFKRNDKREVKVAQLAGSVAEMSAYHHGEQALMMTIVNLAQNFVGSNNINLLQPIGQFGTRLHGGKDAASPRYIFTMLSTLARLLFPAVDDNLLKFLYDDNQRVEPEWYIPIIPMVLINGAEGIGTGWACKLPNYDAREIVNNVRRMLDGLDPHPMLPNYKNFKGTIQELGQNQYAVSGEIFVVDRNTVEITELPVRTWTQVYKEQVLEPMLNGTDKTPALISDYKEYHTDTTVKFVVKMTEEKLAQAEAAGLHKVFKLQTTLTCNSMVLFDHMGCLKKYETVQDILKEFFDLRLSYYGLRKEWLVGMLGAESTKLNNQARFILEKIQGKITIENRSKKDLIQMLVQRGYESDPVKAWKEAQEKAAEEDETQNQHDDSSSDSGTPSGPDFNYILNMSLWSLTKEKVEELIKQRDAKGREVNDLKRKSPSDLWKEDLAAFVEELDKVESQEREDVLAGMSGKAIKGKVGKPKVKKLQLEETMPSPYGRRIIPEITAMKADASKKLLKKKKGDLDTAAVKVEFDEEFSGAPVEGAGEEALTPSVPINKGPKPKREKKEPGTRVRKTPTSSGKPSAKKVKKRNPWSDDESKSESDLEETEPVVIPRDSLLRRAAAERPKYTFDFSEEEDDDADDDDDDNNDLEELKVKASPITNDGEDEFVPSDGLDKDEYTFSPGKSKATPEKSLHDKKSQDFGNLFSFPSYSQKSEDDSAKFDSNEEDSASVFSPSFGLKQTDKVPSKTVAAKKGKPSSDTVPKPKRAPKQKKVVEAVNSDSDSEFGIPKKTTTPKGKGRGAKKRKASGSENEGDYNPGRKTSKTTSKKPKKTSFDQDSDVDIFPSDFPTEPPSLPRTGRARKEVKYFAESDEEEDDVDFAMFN
Procedure: as §1

[1] = system: neonatal rat ventricular cardiomyocytes (NVCM); assay: Protection against DAU-induced cytotoxicity (LDH release) in NVCM; format: cell-based; set-up: key to Suppl.Fig.3 DAU-induced cytotoxicity (LDH release) in NVCM, mean of independent replicates / LDH release (DAU-induced cytotoxicity), mean of independent replicates: % of total LDH activity
Procedure: (§2) The protective effects of the BNS-22 and newly prepared compounds were evaluated using primary cultures of neonatal rat cardiomyocytes isolated in house as previously described. Hearts isolated from 1- to 3-day-old Wistar rats were minced in buffer (1.2 mM MgSO4 · 7H2O, 116 mM NaCl, 5.3 mM KCl, 1.13 mM NaH2PO4 · H2O, 20 mM 4-(2-hydroxyethyl)-1-piperazine ethanesulfonic acid (HEPES), glucose 1 mg/mL) on ice, then serially digested (20 min, six repetitions) at 37 °C with collagenase type II (60 U/mL, Gibco). After 2 h pre-plating in a 150 mm Petri dish per approximately 20 hearts to minimize non-myocyte contamination, cells were plated in 24-well gelatin-coated plates at a density of 400,000 cells per well. Cells were cultured at 37 °C and 5% CO2 in Dulbecco’s modified Eagle medium (DMEM)/ F12 culture medium supplemented with 10% horse serum, 5% fetal bovine serum (FBS), 20 mM sodium pyruvate, 50 U/mL penicillin, and 50 μg/mL streptomycin. Freshly isolated cells were left for 40 h to attach and form a culture of spontaneously beating cardiomyocytes, then the medium was changed to DMEM/F12 medium supplemented with 5% fetal bovine serum, 20 mM sodium pyruvate, 50 U/mL penicillin, and 50 μg/mL streptomycin. For the experiments, the medium was changed to serum- and pyruvate-free DMEM/F12 with 50 U/mL penicillin and 50 μg/mL streptomycin. Cardiomyocytes were pretreated with BNS-22 or new compounds for 3 h and then coincubated with DAU (1.2 µM) for another 3 h. After the DAU treatment period, the culture medium was exchanged for the drug-free DMEM/F12 with 50 U/mL penicillin and 50 μg/mL streptomycin for the 48 h follow-up. Experiments to determine the inherent toxicity of each compound studied follow the same schedule, only no DAU was added. Subsequently, the culture medium sample was taken from each well for evaluation of lactate dehydrogenase (LDH) activity. The total LDH activity of each sample for normalization was measured after 1 h of incubation at 37 °C in lysis buffer (0.1 M potassium phosphate, 1% Triton X-100, 1 mM dithiothreitol (DTT), 2 mM EDTA, pH 7.8, 15 min in RT). All samples were immediately analyzed in Tris HCl buffer (pH 8.9) containing 35 mM lactic acid and 5 mM NAD^+. The rate of NAD^+ reduction was monitored spectrophotometrically at 340 nm for 2 min. The slope of the linear region was calculated, and the results were expressed as a percentage of the total LDH. Each presented data point was obtained from distinct sample.

[2] = system: neonatal rat ventricular cardiomyocytes (NVCM); assay: Inherent toxicity (LDH release) in NVCM; format: cell-based; set-up: key to LDH release (inherent toxicity), mean of independent replicates: % of total LDH activity; settings: NVCM, Suppl.Fig.4
Procedure: as §2

YFP-TOP2A = target: T3, YFP-TOP2A (Homo sapiens, UniProt P11388); assay: FRAP analysis, YFP-TOP2A in HEK293F cells; format: cell-based; settings: 15 min pre-incubation
T3 construct: Using recombinant full-length human TOP2A and TOP2B enzymes; expressed in transfected cells; host or cells: HEK293F
T3 sequence (P11388 whole entry): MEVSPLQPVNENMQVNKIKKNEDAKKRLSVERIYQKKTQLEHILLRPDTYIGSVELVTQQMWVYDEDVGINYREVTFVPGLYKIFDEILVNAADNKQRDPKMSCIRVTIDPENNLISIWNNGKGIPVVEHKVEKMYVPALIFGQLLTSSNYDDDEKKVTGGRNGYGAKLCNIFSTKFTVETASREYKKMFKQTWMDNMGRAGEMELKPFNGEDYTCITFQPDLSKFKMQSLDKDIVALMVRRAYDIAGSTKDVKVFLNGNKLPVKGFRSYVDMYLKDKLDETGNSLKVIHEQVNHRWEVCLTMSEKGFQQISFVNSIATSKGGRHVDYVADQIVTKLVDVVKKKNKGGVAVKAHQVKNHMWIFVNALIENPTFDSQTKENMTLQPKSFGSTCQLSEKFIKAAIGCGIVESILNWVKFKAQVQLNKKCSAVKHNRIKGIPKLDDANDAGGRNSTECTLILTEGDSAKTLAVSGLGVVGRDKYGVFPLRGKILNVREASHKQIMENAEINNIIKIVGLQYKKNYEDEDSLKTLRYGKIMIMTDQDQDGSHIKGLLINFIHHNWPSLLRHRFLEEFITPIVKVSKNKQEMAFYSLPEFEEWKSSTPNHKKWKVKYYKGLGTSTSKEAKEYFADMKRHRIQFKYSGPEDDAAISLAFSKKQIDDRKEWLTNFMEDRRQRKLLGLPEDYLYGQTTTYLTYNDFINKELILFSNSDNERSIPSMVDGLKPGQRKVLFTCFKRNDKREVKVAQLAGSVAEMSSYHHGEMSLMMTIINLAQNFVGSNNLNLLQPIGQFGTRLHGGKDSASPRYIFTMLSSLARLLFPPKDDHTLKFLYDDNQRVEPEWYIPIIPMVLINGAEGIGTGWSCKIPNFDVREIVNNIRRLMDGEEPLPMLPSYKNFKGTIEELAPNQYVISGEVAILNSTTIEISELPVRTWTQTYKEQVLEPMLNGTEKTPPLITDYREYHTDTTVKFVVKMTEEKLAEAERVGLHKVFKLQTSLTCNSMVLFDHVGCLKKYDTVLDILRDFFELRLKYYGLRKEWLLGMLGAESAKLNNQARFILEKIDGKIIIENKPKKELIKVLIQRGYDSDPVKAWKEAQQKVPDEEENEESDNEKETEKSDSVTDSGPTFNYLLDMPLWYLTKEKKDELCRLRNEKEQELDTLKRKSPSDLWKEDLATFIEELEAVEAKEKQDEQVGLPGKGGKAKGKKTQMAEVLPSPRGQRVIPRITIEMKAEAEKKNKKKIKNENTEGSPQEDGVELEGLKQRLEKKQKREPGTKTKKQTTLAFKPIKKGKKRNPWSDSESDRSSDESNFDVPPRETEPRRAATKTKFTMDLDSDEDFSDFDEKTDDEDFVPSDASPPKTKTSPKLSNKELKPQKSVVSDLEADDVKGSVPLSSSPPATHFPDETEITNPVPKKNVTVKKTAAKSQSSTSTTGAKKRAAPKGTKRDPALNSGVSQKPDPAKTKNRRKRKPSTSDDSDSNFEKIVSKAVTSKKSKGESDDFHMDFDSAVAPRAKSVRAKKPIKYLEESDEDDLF
Procedure: (§3) HEK293F cells were transfected with DNA plasmids encoding yellow-fluorescent protein (YFP)-TOP2A or YFP-TOP2B (the same DNA constructs for mammalian protein expression and purification) using Lipofectamine 2000 (Thermo Fisher Scientific). Cells were cultured for 24 h post transfection and YFP signals were confirmed prior to FRAP experiments. Transfected cells were plated on glass-bottomed culture dishes (Matsunami) and rested overnight. The next day, each dish was pre-incubated with the indicated inhibitor treatment or DMSO control for 15 min prior to FRAP experiment. Each set of experiments was repeated on at least two different days using newly transfected cells each time. Live-cell imaging was done using a LSM 980 microscope (Carl Zeiss Microscopy, LLC). YFP signal was excited at 508 nm at 2% laser power and detected through a 516–604 nm range. A small area within the nucleus (purple box) is manually selected for fluorescence bleaching at 100% laser power for 50 iterations. Inhibition of TOP2 by obex inhibitors was detected by impairment in fluorescence recovery at 15 s post bleaching, as a lack of inhibition allows for TOP2 diffusion throughout the nucleus.

YFP-TOP2B = target: T4, YFP-TOP2B (Homo sapiens, UniProt Q02880); assay: FRAP analysis, YFP-TOP2B in HEK293F cells; format: cell-based; settings: 15 min pre-incubation
T4 construct: Using recombinant full-length human TOP2A and TOP2B enzymes; expressed in transfected cells; host or cells: HEK293F
T4 sequence (Q02880 1-1621 isoform Q02880-2): as the sequence (Q02880 1-1621 isoform Q02880-2) above
Procedure: as §3

[3] = target: T5, TOP2A-DNA covalent complex (Homo sapiens, UniProt P11388); assay: RADAR assay, etoposide-induced TOP2A-DNA covalent complex in HEK293F cells; format: cell-based; settings: etoposide 5 μM alone; independent replicates
T5 construct: endogenous in cells; host or cells: HEK293F
T5 sequence (P11388 whole entry, one chain of several): as the sequence (P11388 whole entry) above
Procedure: (§4) HEK293F cells were plated at 3 × 10^5 cells per well and grown overnight. […] Upon removal of media, cells in each well were immediately lysed with 750 µL DNAzol (Molecular Research Center, Inc.) and the DNA was precipitated by addition of 375 µL of 100% ethanol. This step was then repeated to eliminate protein aggregates. Precipitate from each sample was pelleted via centrifugation at 4 °C and max speed for 5 min. The pellets were washed twice with buffer containing 20 mM Tris pH 7.5, 1 mM EDTA pH 8.0, 50 mM NaCl, 50% EtOH, and at the end of each wash, centrifugation at 4000 × g for 2 min was repeated to isolate the DNA pellets. The pellets were washed in 75% EtOH and then collected by centrifugation at 4 °C and max speed for 5 min. The supernatant was removed via pipetting, and the remaining pellets were air dried for 5 min before 50 µL 8 mM NaOH and 0.1% Tween-20 was added to each pellet. Once no visible precipitate remained, each mixture was supplemented with 5 µL of Benzonase buffer containing 500 mM Tris pH 8.0, 10 mM MgCl2, 1/1000 Roche complete protease inhibitor cocktail (Millipore Sigma) and 40 units Benzonase (Millipore Sigma) followed by 30 to 60 min incubation at 37 °C until the pellets were fully dissolved. The DNA content from each sample was quantified on a nanodrop, and 10 µg of DNA was diluted to a final volume of 200 µL in 8 mM NaOH and 0.1% Tween. The samples were applied over the Whatman Minifold I dot blot apparatus (Cytiva) and collected on a PVDF membrane (Thermo Fisher Scientific). The membrane was washed three times with 8 mM NaOH and 0.1% Tween-20 solution prior to removal and blocking with the same wash solution containing 1 mg/mL BSA. Western blotting was carried out on an iBind (Thermo Fisher Scientific) and TOP2 proteins were detected using isoform-specific antibody against full length TOP2A (1:250 dilution; HT2A21, Inspiralis) and TOP2B (1:500 dilution; 611493, BD Biosciences) and visualized with anti-rabbit (1:1000 dilution; 926-68071, LI-COR Bio) and anti-mouse (1:1000 dilution; 926-32210, LI-COR Bio) secondary antibodies in iBind running buffer. The blots were imaged on a LI-COR Odyssey Fc and analysed using ImageStudio. Each presented data point was obtained from distinct sample.

[4] = target: T6, TOP2B-DNA covalent complex (Homo sapiens, UniProt Q02880); assay: RADAR assay, etoposide-induced TOP2B-DNA covalent complex in HEK293F cells; format: cell-based; settings: etoposide 5 μM alone; independent replicates
T6 construct: endogenous in cells; host or cells: HEK293F
T6 sequence (Q02880 2-1626 limits assumed, one chain of several): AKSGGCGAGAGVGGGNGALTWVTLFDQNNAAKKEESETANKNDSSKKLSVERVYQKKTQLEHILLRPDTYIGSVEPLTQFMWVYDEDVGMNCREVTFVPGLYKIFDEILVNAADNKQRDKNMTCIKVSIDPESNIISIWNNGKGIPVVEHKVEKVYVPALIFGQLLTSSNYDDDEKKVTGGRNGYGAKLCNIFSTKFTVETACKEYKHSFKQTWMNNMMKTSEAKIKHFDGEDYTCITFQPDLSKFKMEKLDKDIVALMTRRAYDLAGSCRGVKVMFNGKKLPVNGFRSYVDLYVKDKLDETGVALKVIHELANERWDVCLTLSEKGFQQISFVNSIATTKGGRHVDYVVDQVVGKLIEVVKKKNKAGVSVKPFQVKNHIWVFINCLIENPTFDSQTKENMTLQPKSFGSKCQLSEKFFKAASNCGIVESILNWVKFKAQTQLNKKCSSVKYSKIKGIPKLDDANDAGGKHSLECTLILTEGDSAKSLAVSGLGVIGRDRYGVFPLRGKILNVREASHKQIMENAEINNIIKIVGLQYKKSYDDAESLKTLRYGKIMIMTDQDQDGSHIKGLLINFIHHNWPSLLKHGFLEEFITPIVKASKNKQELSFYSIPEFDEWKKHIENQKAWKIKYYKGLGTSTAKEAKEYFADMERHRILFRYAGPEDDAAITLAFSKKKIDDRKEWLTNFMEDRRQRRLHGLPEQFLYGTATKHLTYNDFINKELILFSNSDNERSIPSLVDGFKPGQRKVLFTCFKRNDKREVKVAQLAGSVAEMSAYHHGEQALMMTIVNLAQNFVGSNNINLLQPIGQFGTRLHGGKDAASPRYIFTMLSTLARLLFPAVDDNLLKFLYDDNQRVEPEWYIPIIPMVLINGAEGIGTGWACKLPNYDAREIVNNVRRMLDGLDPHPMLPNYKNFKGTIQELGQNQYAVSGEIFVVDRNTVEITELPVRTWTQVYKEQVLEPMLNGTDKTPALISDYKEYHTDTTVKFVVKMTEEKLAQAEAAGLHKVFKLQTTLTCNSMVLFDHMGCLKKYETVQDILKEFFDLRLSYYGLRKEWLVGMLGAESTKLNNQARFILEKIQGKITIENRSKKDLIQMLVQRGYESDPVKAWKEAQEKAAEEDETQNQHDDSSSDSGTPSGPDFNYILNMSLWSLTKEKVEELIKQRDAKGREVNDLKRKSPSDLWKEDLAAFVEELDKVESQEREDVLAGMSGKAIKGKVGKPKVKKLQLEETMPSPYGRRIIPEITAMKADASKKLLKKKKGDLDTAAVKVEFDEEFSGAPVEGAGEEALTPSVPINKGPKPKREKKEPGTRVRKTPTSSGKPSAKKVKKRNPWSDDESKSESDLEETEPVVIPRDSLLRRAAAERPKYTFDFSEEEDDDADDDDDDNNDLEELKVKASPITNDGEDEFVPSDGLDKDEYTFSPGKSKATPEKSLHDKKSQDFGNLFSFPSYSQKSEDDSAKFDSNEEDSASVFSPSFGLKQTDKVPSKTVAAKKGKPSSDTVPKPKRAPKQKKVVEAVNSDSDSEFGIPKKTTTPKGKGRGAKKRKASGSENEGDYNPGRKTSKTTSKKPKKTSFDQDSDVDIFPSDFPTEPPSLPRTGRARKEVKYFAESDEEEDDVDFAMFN
Procedure: as §4

T1 sequence (P11388 whole entry): as the sequence (P11388 whole entry) above

Row | Compound | IC50 (recombinant human TOP2A) [nM] | relative inhibition of TOP2A vs TOP2B (recombinant human TOP2B; ATPase) | SRbeta (SRTOP2B), TOP2 ATPase activity (recombinant human TOP2B; TOP2A IC50 divided by TOP2B IC50) | IC50 (recombinant human TOP2B; n=3) [nM] | minimal effective concentration ([1]; Rattus norvegicus, Cardiomyocyte, NVCM, protection against DAU 1.2 µM, n=4, read-out: LEC = lowest effective concentration) [µM] | Suppl.Fig.3 DAU-induced cytotoxicity (LDH release) in NVCM, mean of independent replicates ([1]; compound 1 µM + DAU 1.2 µM) | Suppl.Fig.3 DAU-induced cytotoxicity (LDH release) in NVCM, mean of independent replicates ([1]; compound 10 µM + DAU 1.2 µM) | Suppl.Fig.3 DAU-induced cytotoxicity (LDH release) in NVCM, mean of independent replicates ([1]; compound 30 µM + DAU 1.2 µM) | Suppl.Fig.3 DAU-induced cytotoxicity (LDH release) in NVCM, mean of independent replicates ([1]; compound 100 µM + DAU 1.2 µM) | LDH release (inherent toxicity), mean of independent replicates ([2]; compound alone 1 µM) | LDH release (inherent toxicity), mean of independent replicates ([2]; compound alone 10 µM) | LDH release (inherent toxicity), mean of independent replicates ([2]; compound alone 30 µM) | LDH release (inherent toxicity), mean of independent replicates ([2]; compound alone 100 µM) | fluorescence recovery of YFP-TOP2A (FRAP) (YFP-TOP2A) | fluorescence recovery of YFP-TOP2B (FRAP) (YFP-TOP2B) | TOP2A spot intensity [3] | TOP2B spot intensity [4]
1 | CCCc1cc(=O)oc2c(C(=O)N3CCCc4ccccc43)c(O)ccc12 [2c] | 690 | inhibited TOP2A and TOP2B with equal efficacy | 1.0 | 660 | 10 | 33.3224 | 29.0836 | 25.5275 | 35.3978 | 16.6801 | 16.3877 | 17.2005 | 29.603 | inhibits fluorescence recovery | inhibits fluorescence recovery |  | 
2 | COc1cc([C@@H]2c3cc4c(cc3[C@@H](O[C@@H]3O[C@@H]5CO[C@@H](C)O[C@H]5[C@H](O)[C@H]3O)[C@H]3COC(=O)[C@H]23)OCO4)cc(OC)c1O [etoposide, reference compound] |  |  |  |  |  |  |  |  |  |  |  |  |  |  |  | 63.37 and 136 and 84.27 and 127.1 and 89.2 | 173.9 and 77.69 and 59.37 and 61.46

— PMC12116762, “Topobexin targets the Topoisomerase II ATPase domain for beta isoform-selective inhibition and anthracycline cardioprotection” (Nature Communications, 2025)
